The conditions of series [1]: background statement; cited from earlier work.
Series [2] has as its target KRAS G12C (Homo sapiens, UniProt P01116, G12C). The conditions noted are these: background statement; cited from earlier work.
For series [3], the system named is H358 (KRAS G12C mutant) cells. The series is described as follows: Tumor cell proliferation inhibition assay (Cell Titer-Glo, 72 h). Format: cell-based. The conditions noted are these: Homo sapiens, NCI-H358; inhibition of tumor cell proliferation, 72 hours with compound, 10% fetal bovine serum; read-out: NCI-H538 IC50(nm). The gist of the method: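 H358 cells seeded, cultured 24 h, then exposed to serial compound concentrations for 72 h in 10% FBS at 37 °C, 5% CO2. ATP measured by CellTiter-Glo; % inhibition relative to DMSO (max) and medium-only (min) signals. IC50 from sigmoid dose-response fit, binned into categories A–D.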
On the technique in general: Cellular ATP, detected with luciferase, serves as a proxy for viable cell number.

For series [4], the target named is T1, KRAS-G2C/SOS1 (Homo sapiens, UniProt P01116, G12C).
T1 construct: Tag2 (identity not disclosed)
Kind of series: KRAS-G12C/SOS1 binding experiment (HTRF). The following applies: Tag2-KRAS-G12C protein and Tag1-SOS protein. The protocol: • A) Dilute Tag2-KRAS-G12C protein and Tag1-SOS protein with diluent at 1:100, anti-Tag1-Tb3+ antibody and anti-Tag2-XL665 with detection buffer at 1:100 or 1:25 respectively Dilute. • B) Dilute the compound to be tested with diluent starting from […] concentration, 4 times gradient, a total of 6 concentration gradients, and dilute to 10× stock solution. • C) In a 96-well plate, add 4 uLTag2-KRAS-G12C protein, 4 uL Tagl-SOS protein, 2 ul dilution solution (positive control) or test compound (different concentrations of 10× stock solution) to each well in sequence, a total of 10 ul, and incubate at room temperature for […], add pre-mixed 5 uL anti-Tagl-Tb3+ and 5 uL anti-Tag2-xL665, seal the plate, incubate at room temperature for 2 hours, and read the HTRF signal with a TECAN INFINITEF NANO+ microplate reader.
The ratio of […] and donor excitation signals for each single well was calculated using the formula ratio=665 nm signal value/620 nm signal value×[…]. Data were processed using Graphpadprism5 software. IC50 values were calculated by sigmoidal dose-response curve fitting.
For orientation: Time-resolved FRET reads energy transfer from a long-lived donor to a nearby acceptor.

pIC50: −log10 of the molar value.

Turning to `C=CC(=O)N1CC(N2CCN(C(=O)CNc3cc(C4(C)CC4)c(Cl)cc3O)CC2)C1` [ARS-853], in series [1], the pharmacokinetic properties result was “poor”.
`C=CC(=O)N1CCN(c2ncnc3c(F)c(-c4c(O)cccc4F)c(Cl)cc23)CC1` [ARS-1620]: in series [2], the “tumor effect in vivo” value was “induce tumor regression”.
In general, pIC50 refers to the IC50 on a negative log10 scale, so that one unit is a factor of ten. `C=C(F)C(=O)N1CCN(c2cc(OC[C@@H]3CCCN3C)nc3nc(-c4c(O)cccc4F)c(F)cc23)[C@H](C)C1` [Compound 2, 7-(2-Fluoro-6-hydroxyphenyl)-6-fluoro-4-(((R)-4-(2-fluoroacryloyl)-2-methylpiperazine)-1-yl)-2-(((S)-1-methylpyrrolidin-2-yl)methoxy)-1,8-naphthyridine]: the pIC50 in series [3] was < 5.70; in series [4], < 6.30.
As to `C=C(F)C(=O)N1CCN(c2cc(OC[C@@H]3CCCN3C)nc3nc(-c4c(O)cccc4F)c(F)cc23)C[C@@H]1CC#N` [Compound 4, 7-(2-Fluoro-6-hydroxyphenyl)-6-fluoro-4-(((S)-4-(2-fluoroacryloyl)-3-carbonitrileethylpiperazine)-1-yl)-2-(((S)-1-methylpyrrolidin-2-yl)methoxy)-1,8-naphthyridine], the pIC50 in series [3] is < 5.70; in series [4], < 6.30.
In the same order, the values of `C=CC(=O)N1C2CCC1CN(c1cc(OC[C@@]34CCCN3C[C@H](F)C4)nc3nc(-c4cccc5cccc(F)c45)c(F)cc13)C2` [Compound 28] are ≥ 7.30 and > 7.30.

The record behind these values is patent publication US20240182470A1, “KRASG12C MUTANT PROTEIN INHIBITOR, PREARATION AND USE THEREOF” (YA THERAPEUTICS INC, priority 2021, published 2024).
